Source: patent US20140057953A1, “BIARYL DERIVATIVES AS SELECTIVE 17BETA-HYDROXYSTEROID DEHYDROGENASE TYPE 2 INHIBITORS” (priority 2011, published 2014)

Columns and labels:
ERα = molecular target: T1, ERα (Homo sapiens, UniProt P03372); assay: ER affinity assay (ERα), [3H]-E2 displacement; settings: Relative Binding Affinity, E2 = 100%; recombinant human protein
T1 sequence (P03372 1-595): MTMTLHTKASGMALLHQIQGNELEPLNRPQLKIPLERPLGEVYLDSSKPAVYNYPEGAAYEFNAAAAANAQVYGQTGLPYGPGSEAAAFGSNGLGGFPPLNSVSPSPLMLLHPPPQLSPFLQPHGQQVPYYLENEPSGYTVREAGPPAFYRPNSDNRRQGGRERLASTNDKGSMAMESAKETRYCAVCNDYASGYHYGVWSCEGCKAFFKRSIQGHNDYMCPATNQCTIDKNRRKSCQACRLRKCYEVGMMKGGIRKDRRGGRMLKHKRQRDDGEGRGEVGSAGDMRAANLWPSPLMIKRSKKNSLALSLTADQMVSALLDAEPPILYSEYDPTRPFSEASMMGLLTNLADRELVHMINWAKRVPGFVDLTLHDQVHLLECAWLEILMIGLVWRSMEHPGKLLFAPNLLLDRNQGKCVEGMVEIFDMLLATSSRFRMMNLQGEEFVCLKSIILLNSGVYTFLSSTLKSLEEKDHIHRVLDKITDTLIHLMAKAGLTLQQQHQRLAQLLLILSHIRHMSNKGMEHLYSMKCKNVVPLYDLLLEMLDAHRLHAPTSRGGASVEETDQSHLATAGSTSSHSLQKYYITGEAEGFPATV
Procedure: (§1) The binding affinity of selected compounds to the ERα and ERβ was determined according to Zimmermann et al. (Zimmermann, J. et al., 3. Steroid Biochem. Mol. Biol., 94:57-66 (2005)) using recombinant human proteins. Briefly, 0.25 μM of ERα or ERβ, respectively, were incubated with [^3H]-E2 (10 nM) and test compound for 1 h at room temperature. The potential inhibitors were dissolved in DMSO (5% final concentration). Evaluation of non-specific-binding was performed with diethylstilbestrol (10 μM). After incubation, ligand-receptor complexes were selectively bound to hydroxyapatite (5 g/60 ml TE-buffer). The formed complex was separated, washed and resuspended in ethanol. For radiodetection, scintillator cocktail (Quickszint 212, Zinsser Analytic, Frankfurt) was added and the samples were measured in a liquid scintillation counter (Rack Beta Primo 1209, Wallac, Turku). […] The compound concentration to displace 50% of the receptor bound [^3H]-E2 were determined. Unlabelled E2 was used as a reference. For determination of the relative binding affinity (RBA) the ratio was calculated according to the following equation: […]
(§2) After the assay was established and validated a modification was made to increase throughput. […] Results were reported as RBA ranges.

ERβ = ERβ (Homo sapiens, UniProt Q92731); assay: ER affinity assay (ERβ), [3H]-E2 displacement; settings: Relative Binding Affinity, E2 = 100%; recombinant human protein
Chain of ERβ (Q92731 whole entry): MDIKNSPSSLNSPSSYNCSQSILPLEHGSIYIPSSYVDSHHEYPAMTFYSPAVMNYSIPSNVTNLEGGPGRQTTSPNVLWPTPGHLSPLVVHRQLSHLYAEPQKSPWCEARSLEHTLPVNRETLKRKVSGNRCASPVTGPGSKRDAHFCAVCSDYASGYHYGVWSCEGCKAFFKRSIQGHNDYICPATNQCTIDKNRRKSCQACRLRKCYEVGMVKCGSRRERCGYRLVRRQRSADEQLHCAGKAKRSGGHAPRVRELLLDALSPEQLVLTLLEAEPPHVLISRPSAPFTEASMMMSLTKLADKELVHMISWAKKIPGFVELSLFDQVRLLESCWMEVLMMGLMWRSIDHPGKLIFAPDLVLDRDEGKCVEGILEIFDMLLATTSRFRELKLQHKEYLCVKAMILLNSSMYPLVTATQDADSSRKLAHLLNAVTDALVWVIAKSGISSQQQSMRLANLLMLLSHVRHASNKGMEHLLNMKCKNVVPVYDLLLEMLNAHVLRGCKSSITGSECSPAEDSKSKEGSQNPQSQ
Procedure: as §1, §2

17β-HSD2 = molecular target: T2, 17β-HSD2 (Homo sapiens, UniProt P37059); assay: Inhibition of 17β-HSD2 in cell-free assay; format: biochemical; parameters: 17β-HSD2 was obtained directly from the microsomal fraction; from tissue; host or cells: human placenta, microsomal fraction; settings: human placenta, microsomal fraction, substrate E2 500 nM, cofactor NAD+ 1500 μM; for inhibition at 1 µM: inhibitor concentration 1 μM
T2 sequence (P37059 1-387): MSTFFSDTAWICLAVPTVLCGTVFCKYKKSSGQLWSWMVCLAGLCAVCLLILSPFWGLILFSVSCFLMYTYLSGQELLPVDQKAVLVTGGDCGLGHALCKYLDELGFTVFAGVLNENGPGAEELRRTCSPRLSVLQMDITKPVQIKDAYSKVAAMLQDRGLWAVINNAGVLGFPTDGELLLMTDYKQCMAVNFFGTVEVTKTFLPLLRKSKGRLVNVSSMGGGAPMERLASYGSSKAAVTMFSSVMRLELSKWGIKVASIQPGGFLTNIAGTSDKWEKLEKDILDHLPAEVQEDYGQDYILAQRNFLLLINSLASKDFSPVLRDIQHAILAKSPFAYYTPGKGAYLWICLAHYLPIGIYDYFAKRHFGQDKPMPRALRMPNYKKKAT
Procedure: (§3) Fresh human placenta was homogenized. Cytosolic and microsomal fractions were separated by centrifugation at 1000 g, 10000 g and 150000 g. 17β-HSD2 was obtained directly from the microsomal fraction. For the partial purification of 17β-HSD1, the cytosolic fraction was precipitated with ammonium sulfate. Aliquots containing 17β-HSD1 or 17β-HSD2 were stored frozen.
Inhibitor stock solutions were prepared in DMSO. Final concentration of DMSO was adjusted to 1% in all samples. The enzymatic reaction was started by addition of a mixture of unlabelled- and [^3H]-E2 (final concentration: 500 nM, 0.11 μCi). After 20 min at 37° C., the incubation was stopped with HgCl2 and the mixture was extracted with ether. After evaporation, the steroids were dissolved in acetonitrile. E1 and E2 were separated using acetonitrile/water (45:55) as mobile phase in a C18 RP chromatography column (Nucleodur C18, 3 μm, Macherey-Nagel, Duren) connected to a HPLC-system (Agilent 1100 Series, Agilent Technologies, Waldbronn). Detection and quantification of the steroids were performed using a radioflow detector (Berthold Technologies, Bad Wildbad). The conversion rate was calculated according to the following equation: […]

17β-HSD1 = molecular target: T3, 17β-HSD1 (Homo sapiens, UniProt P14061); assay: Inhibition of 17β-HSD1 in cell-free assay; format: biochemical; settings: human placenta, cytosolic fraction, substrate E1 500 nM, cofactor NADH 500 μM
T3 construct: For the partial purification of 17β-HSD1, the cytosolic fraction was precipitated with ammonium sulfate; from tissue; host or cells: human placenta, cytosolic fraction
T3 sequence (P14061 1-328): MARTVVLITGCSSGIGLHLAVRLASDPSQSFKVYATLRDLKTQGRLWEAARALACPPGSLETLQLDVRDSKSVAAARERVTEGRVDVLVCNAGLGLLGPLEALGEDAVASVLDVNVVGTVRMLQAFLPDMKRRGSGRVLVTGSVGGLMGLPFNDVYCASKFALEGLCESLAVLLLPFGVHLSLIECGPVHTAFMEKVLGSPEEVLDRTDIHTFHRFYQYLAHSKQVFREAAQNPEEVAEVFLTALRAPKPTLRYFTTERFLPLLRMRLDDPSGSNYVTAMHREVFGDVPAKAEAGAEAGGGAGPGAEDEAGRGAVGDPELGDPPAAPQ
Procedure: as §3
The 17β-HSD1 inhibition assay was performed similarly to the 17β-HSD2 test. The cytosolic fraction was incubated with NADH [500 μM], test compound and a mixture of unlabelled- and [^3H]-E1 (final concentration: 500 nM, 0.15 μCi) for 10 min at 37° C. Further treatment of the samples and HPLC separation was carried out as mentioned above for 17β-HSD2.

Structure (SMILES): COc1cccc(CN(C)C(=O)c2ccc(-c3cccc(OC)c3)cc2)c1 [compound 1, 3′-Methoxy-N-(3-methoxybenzyl)-N-methylbiphenyl-4-carboxamide]
- ERα RBA (%) (ERα): <0.1%
- ERβ RBA (%) (ERβ): <0.1%

Structure (SMILES): Cc1cccc(-c2ccc(C(=O)N(C)Cc3cccc(O)c3)cc2)c1 [compound 4, N-(3-hydroxybenzyl)-N,3′-dimethylbiphenyl-4-carboxamide]
- ERα RBA (%) (ERα): <0.1%
- ERβ RBA (%) (ERβ): <0.1%

Structure (SMILES): COc1ccc(-c2cccc(C(=O)N(C)Cc3cccc(OC)c3)c2)cc1 [compound 5, 4′-Methoxy-N-(3-methoxybenzyl)-N-methylbiphenyl-3-carboxamide]
- inhibition at 1 µM (17β-HSD2): 11%
- % inhibition 17β-HSD1 (17β-HSD1; inhibitor concentration 1 μM): n.i.^e

Structure (SMILES): CN(Cc1cccc(O)c1)C(=O)c1cccc(-c2ccc(O)cc2)c1 [compound 6, 4′-Hydroxy-N-(3-hydroxybenzyl)-N-methylbiphenyl-3-carboxamide]
- ERα RBA (%) (ERα): <0.1%
- ERβ RBA (%) (ERβ): <0.1%

Structure (SMILES): CN(Cc1cccc(O)c1)C(=O)c1cccc(-c2cccc(O)c2)c1 [compound 8, 3′-Hydroxy-N-(3-hydroxybenzyl)-N-methylbiphenyl-3-carboxamide]
- IC50 (17β-HSD2): 481 nM
- IC50 (17β-HSD1): 3.8 µM

Structure (SMILES): COc1cccc(CCN(C)C(=O)c2ccc(-c3cccc(OC)c3)s2)c1 [compound 17, N-(3-Methoxyphenethyl)-5-(3-methoxyphenyl)-N-methylthiophene-2-carboxamide]
- inhibition at 1 µM (17β-HSD2): 31%
- % inhibition 17β-HSD1 (17β-HSD1; inhibitor concentration 1 μM): n.i.^e

Structure (SMILES): CN(CCc1cccc(O)c1)C(=O)c1ccc(-c2cccc(O)c2)s1 [compound 18, N-(3-Hydroxyphenethyl)-5-(3-hydroxyphenyl)-N-methylthiophene-2-carboxamide]
- inhibition at 1 µM (17β-HSD2): 37%
- inhibition at 1 µM (17β-HSD1; inhibitor concentration 1 μM): 23%

Structure (SMILES): COc1ccc(-c2ccc(C(=O)N(C)Cc3cccc(OC)c3)s2)cc1 [compound 25, N-(3-Methoxybenzyl)-5-(4-methoxyphenyl)-N-methylthiophene-2-carboxamide]
- ERα RBA (%) (ERα): <0.1%
- ERβ RBA (%) (ERβ): <0.1%

Structure (SMILES): CN(Cc1cccc(O)c1)C(=O)c1ccc(-c2ccccc2)s1 [compound 30, N-(3-Hydroxybenzyl)-N-methyl-5-phenylthiophene-2-carboxamide]
- ERα RBA (%) (ERα): <0.1%
- ERβ RBA (%) (ERβ): <0.1%

Structure (SMILES): COc1cccc(-c2ccc(C(=O)N(C)Cc3ccccc3)s2)c1 [compound 33, N-Benzyl-5-(3-methoxyphenyl)-N-methylthiophene-2-carboxamide]
- ERα RBA (%) (ERα): <0.1%
- ERβ RBA (%) (ERβ): <0.1%

Structure (SMILES): COc1ccc(-c2ccc(C(=O)N(C)Cc3ccccc3)s2)cc1 [compound 35, N-Benzyl-5-(4-methoxyphenyl)-N-methylthiophene-2-carboxamide]
- ERα RBA (%) (ERα): <0.1%
- ERβ RBA (%) (ERβ): <0.1%

Structure (SMILES): CN(Cc1cccc(O)c1)C(=O)c1ccc(-c2ccc(F)cc2)s1 [compound 42, 5-(4-Fluorophenyl)-N-(3-hydroxybenzyl)-N-methylthiophene-2-carboxamide]
- ERα RBA (%) (ERα): <0.1%
- ERβ RBA (%) (ERβ): <0.1%

Structure (SMILES): COc1cccc(-c2ccc(C(=O)N(C)Cc3cccc(O)c3)s2)c1 [compound 45, N-(3-Hydroxybenzyl)-5-(3-methoxyphenyl)-N-methylthiophene-2-carboxamide]
- IC50 (17β-HSD1): 23.3 µM
- ERα RBA (%) (ERα): <0.1%
- ERβ RBA (%) (ERβ): <0.1%

Structure (SMILES): COc1cccc(-c2ccc(C(=O)N(C)c3cccc(OC)c3)s2)c1 [compound 47, N,5-bis(3-Methoxyphenyl)-N-methylthiophene-2-carboxamide]
- ERα RBA (%) (ERα): <0.1%
- ERβ RBA (%) (ERβ): <0.1%

Structure (SMILES): COc1ccc(-c2ccc(C(=O)N(C)c3cccc(OC)c3)s2)cc1 [compound 55, N-(3-Methoxyphenyl)-5-(4-methoxyphenyl)-N-methylthiophene-2-carboxamide]
- ERα RBA (%) (ERα): <0.1%
- ERβ RBA (%) (ERβ): <0.1%

Structure (SMILES): COc1cccc(N(C)C(=O)c2ccc(-c3cccc(SC)c3)s2)c1 [compound 63, N-(3-methoxyphenyl)-N-methyl-5-(3-(methylthio)phenyl)thiophene-2-carboxamide]
- ERα RBA (%) (ERα): <0.1%
- ERβ RBA (%) (ERβ): <0.1%

Structure (SMILES): COc1cccc(N(C)C(=O)c2ccc(-c3cccc(C)c3)s2)c1 [compound 64, N-(3-methoxyphenyl)-N-methyl-5-m-tolylthiophene-2-carboxamide]
- ERα RBA (%) (ERα): <0.1%
- ERβ RBA (%) (ERβ): <0.1%

Structure (SMILES): COc1cccc(N(C)C(=O)c2ccc(-c3c(F)ccc(OC)c3F)s2)c1 [compound 65, 5-(2,6-Difluoro-3-methoxyphenyl)-N-(3-methoxyphenyl)-N-methylthiophene-2-carboxamide]
- ERα RBA (%) (ERα): <0.1%
- ERβ RBA (%) (ERβ): <0.1%

Structure (SMILES): COc1cccc(N(C)C(=O)c2ccc(-c3cccc(C)c3F)s2)c1 [compound 66, 5-(2-Fluoro-3-methylphenyl)-N-(3-methoxyphenyl)-N-methylthiophene-2-carboxamide]
- ERα RBA (%) (ERα): <0.1%
- ERβ RBA (%) (ERβ): <0.1%

Structure (SMILES): COc1cccc(-c2ccc(C(=O)N(C)c3ccccc3)s2)c1 [compound 67, 5-(3-Methoxyphenyl)-N-methyl-N-phenylthiophene-2-carboxamide]
- ERα RBA (%) (ERα): <0.1%
- ERβ RBA (%) (ERβ): <0.1%

Structure (SMILES): COc1cccc(-c2ccc(C(=O)N(C)c3cccc(C)c3)s2)c1F [compound 72, 5-(2-Fluoro-3-methoxyphenyl)-N-methyl-N-(m-tolylthiophene)-2-carboxamide]
- ERα RBA (%) (ERα): <0.1%
- ERβ RBA (%) (ERβ): <0.1%

Structure (SMILES): Cc1cccc(-c2ccc(C(=O)N(C)c3ccccc3F)s2)c1 [compound 74, N-(2-fluorophenyl)-N-methyl-5-m-tolylthiophene-2-carboxamide]
- ERα RBA (%) (ERα): <0.1%
- ERβ RBA (%) (ERβ): <0.1%
